# Laboratory results reported in patent publication US9156853B2, “AKT inhibitor compounds for treatment of cancer” (ALMAC DISCOVERY LIMITED, priority 2012, dated 2015).
# pIC50: −log10 of the molar value. Where a name gives a salt, the structure may show the parent alone.
# Experiments:
# [1] = target: T1, AKT2 (Homo sapiens, UniProt P31751); assay: AKT Kinase Assay (IMAP fluorescent polarisation), AKT2 isoform; assay type: biochemical; settings: for pIC50: activated AKT2, FAM Crosstide substrate; for potency against AKT2 compared with the comparator compound: compared with the non-hydroxylated Compound A, F or L
# T1 construct: purchased SignalChem
# T1 sequence (P31751 whole entry, canonical isoform): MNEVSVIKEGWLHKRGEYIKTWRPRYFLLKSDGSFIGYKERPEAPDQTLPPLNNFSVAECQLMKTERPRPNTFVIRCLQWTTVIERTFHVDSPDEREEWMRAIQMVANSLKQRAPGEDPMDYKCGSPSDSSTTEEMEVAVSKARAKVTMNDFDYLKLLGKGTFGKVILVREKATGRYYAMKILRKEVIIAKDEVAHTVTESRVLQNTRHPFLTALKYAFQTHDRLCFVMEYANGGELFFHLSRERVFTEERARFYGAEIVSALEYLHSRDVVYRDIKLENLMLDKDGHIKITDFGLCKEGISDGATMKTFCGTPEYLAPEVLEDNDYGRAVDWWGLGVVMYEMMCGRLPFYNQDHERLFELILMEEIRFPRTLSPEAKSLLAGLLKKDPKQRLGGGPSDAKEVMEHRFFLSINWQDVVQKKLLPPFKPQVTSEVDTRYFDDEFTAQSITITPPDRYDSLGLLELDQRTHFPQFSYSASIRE
# Experimental: (§1) Testing of the compounds was performed using an AKT Kinase Assay:
# (§2) Activated AKT isoforms 1, 2 and 3 were assayed utilising a 5′ FAM Crosstide (Seq. GRPRTSSFAEG-OH). The extent of kinase phosphorylation was determined by fluorescent polarisation using IMAP progressive binding reagent, which introduces binding beads which allow the reagent to specifically bind to phosphate residues via covalent co-ordination complex bonds.
# (§3) iMAP binding solution stops Crosstide/kinase interaction and specifically binds phosphorylated substrates. The degree of phosphorylation is determined by fluorescent polarisation (excitation 485 nm; emission 528 nm) or the reduction in speed of rotation of the excited substrate.
# (§4) The following materials were used in the assay: • a) Activated AKT isoforms (SignalChem.) dissolved in Complete Reaction buffer at a predetermined concentration selected so that the assay was carried out in the linear range. • b) AKT substrate peptide: FAM Crosstide (R7110) Molecular Devices, diluted in complete reaction buffer. • c) iMAP Progressive Screening Express Kit (R8127) Molecular Devices • d) Complete Reaction Buffer containing 0.1% BSA, 10 mM Tris-HCl, 10 mM MgCl2, 0.05% NaN3 and 0.01% phosphate free BSA, 1 mM DTT • e) Progressive Binding Solution containing 75% Buffer A, 25% Buffer B and low volume Binding Reagent which contains the binding entity for the assay • f) ATP diluted in complete reaction buffer • g) Black polystyrene 384 well assay plates (Nunc). • h) Biotek Synergy 4 Hybrid Plate reader.
# (§5) 5 μl of test compound was dissolved in DMSO (Sigma Aldrich) and serially diluted in complete reaction buffer to give a fourteen point half log dose response and plated into 384 well black plates. The compound was incubated at room temperature with activated AKT isoform (5 μl) at the predetermined concentration, for 45 min.
# (§6) 2.5 μl of ATP solution mixed with 2.5 μl of AKT substrate peptide (FAM Crosstide (R7110) Molecular Devices) were dispensed into each well and the plate centrifuged at 1000 rpm for 20 seconds to ensure homogenous mixing of reagents. The reaction mix was incubated in the dark for 1 h at room temperature.
# (§7) The kinase reaction was stopped by the addition of Progressive Binding Solution and the mixture allowed to equilibrate for 1 h in the dark, at room temperature.
# (§8) The fluorescent polarisation generated in each well was determined using a […] Synergy 4 Hybrid plate reader. In brief, each reaction solution was excited at 485 nm with the emission measured at 528 nm in both the parallel and perpendicular pathway.
# (§9) The polarisation value generated in each well was calculated by Gen5 software (Biotek) and the % inhibition of kinase activity compared to vehicle control was calculated via GraphPad Prism. IC50 values for each compound were calculated by non-linear regression analysis using Prism software.
# (§10) All plates were internally controlled by two methods. Firstly, by calculating the signal:noise ratio; based on kinase polarisation without inhibitor and polarisation generated by complete reaction buffer in the absence of activated kinase. Secondly by determining IC50 values generated by known inhibitors of the AKT isoforms.
# (§11) The data was analysed using GraphPad Prism, with IC50 values generated using non-linear regression of the data set.
# [2] = target: T2, AKT1 (Homo sapiens, UniProt P31749); assay: AKT Kinase Assay (IMAP fluorescent polarisation), AKT1 isoform; assay type: biochemical; settings: for pIC50: activated AKT1, FAM Crosstide substrate; for potency against AKT1 compared with the comparator compound: compared with the non-hydroxylated Compound A, F or L
# T2 construct: purchased SignalChem
# T2 sequence (P31749 whole entry, canonical isoform): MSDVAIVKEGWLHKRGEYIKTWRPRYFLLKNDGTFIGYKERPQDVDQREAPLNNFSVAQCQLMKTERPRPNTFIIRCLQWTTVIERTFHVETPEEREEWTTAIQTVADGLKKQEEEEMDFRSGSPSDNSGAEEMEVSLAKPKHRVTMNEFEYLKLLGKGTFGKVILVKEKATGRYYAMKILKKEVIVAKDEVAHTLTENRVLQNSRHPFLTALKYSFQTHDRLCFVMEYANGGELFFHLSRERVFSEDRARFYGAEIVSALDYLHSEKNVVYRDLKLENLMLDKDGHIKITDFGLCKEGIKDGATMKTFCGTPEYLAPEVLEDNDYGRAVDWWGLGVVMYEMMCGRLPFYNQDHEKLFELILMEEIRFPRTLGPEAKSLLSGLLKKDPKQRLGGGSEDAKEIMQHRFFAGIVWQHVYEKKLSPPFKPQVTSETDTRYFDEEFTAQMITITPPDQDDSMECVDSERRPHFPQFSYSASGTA
# Experimental: as §1, §2, §3, §4, §5, §6, §7, §8, §9, §10, §11
# [3] = target: T3, AKT3 (Homo sapiens, UniProt Q9Y243); assay: AKT Kinase Assay (IMAP fluorescent polarisation), AKT3 isoform; assay type: biochemical; settings: for pIC50: activated AKT3, FAM Crosstide substrate; for potency against AKT3 compared with the comparator compound: compared with the non-hydroxylated Compound A, F or L
# T3 construct: purchased SignalChem
# T3 sequence (Q9Y243 whole entry, canonical isoform): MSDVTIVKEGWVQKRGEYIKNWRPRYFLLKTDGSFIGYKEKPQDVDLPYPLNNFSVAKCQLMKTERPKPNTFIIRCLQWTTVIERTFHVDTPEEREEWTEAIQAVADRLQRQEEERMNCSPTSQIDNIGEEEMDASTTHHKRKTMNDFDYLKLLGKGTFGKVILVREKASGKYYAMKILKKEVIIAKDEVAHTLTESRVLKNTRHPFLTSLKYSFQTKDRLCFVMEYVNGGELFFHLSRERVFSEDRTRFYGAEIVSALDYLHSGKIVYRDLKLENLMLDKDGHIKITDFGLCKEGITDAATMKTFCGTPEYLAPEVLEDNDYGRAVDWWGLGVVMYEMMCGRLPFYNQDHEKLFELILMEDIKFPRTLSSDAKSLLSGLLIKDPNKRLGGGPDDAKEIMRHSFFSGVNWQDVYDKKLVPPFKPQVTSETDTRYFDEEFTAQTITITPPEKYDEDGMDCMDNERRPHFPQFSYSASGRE
# Experimental: as §1, §2, §3, §4, §5, §6, §7, §8, §9, §10, §11
# [4] = test system: pAKT (Ser473) in PC3 cells; assay: Inhibition of pAKT in PC3 cells; assay type: cell-based; settings: Homo sapiens, PC-3, 24 h incubation, read-out: inhibition of pAKT in PC3 cell lines, IC50
# Experimental: Analysis of Compound Effects on AKT Signalling Pathways: Inhibition of pAKT in PC3 Cells
# PC3 cells were seeded overnight in 96 well plates followed by serum starvation for 4 h. Increasing concentrations of AKT inhibitor, in complete medium (RPMI 1640), were added to the cells and incubated for a further 24 h.
# The cells were fixed in paraformaldehyde, permeabilised and blocked in BSA, followed by incubation with pAKT (Ser473) and total AKT antibody overnight (R&D Systems). Secondary antibody mixture was added, followed by a combination of fluorescent substrates added for a final incubation.
# Fluorescent intensities for each antibody were read at 540/600 nm and 360/450 nm respectively on a Synergy 4 plate reader. The percentage change in fluorescent intensity was plotted against log concentration of inhibitor; to generate IC50 values (GraphPad Prism).
# [5] = Plasma protein binding (fraction unbound, human plasma); assay type: in vitro ADME
# Experimental: (§12) SelectScreen® data was determined at Invitrogen. Plasma protein binding and pharmacokinetic analyses were determined using standard protocols.
# [6] = Pharmacokinetic analysis, half-life in rat; assay type: in vivo; settings: for half-life: rat, in vivo, read-out: T½ (rat) h
# Experimental: as §12
# [7] = test system: kinases other than AKT1; assay: SelectScreen kinase panel (Invitrogen); assay type: biochemical; settings: for >=80% in Selectscreen (at 10 uM) other than AKT1: number of kinases other than AKT1 with >=80% at 10 uM
# Experimental: as §12
SMILES,pIC50 [1],potency against AKT2 compared with the comparator compound [1],pIC50 [2],potency against AKT1 compared with the comparator compound [2],pIC50 [3],potency against AKT3 compared with the comparator compound [3],pIC50 [4],fraction unbound [5],unbound fraction (human plasma) compared with Compound A ([5]; compared with Compound A),half-life [6] [h],"T1/2 in rodent compared with Compound A ([6]; rodent, compared with Compound A)",>=80% in Selectscreen (at 10 uM) other than AKT1 [7],off-target kinase activity in the SelectScreen panel compared with Compound A ([7]; compared with compound A)
"N[C@]1(c2ccc(-c3oc4ncn(CC(F)(F)F)c(=O)c4c3-c3ccccc3)cc2)C[C@H](O)C1 [Compound 3, 6-(4-((1s,3s)-1-Amino-3-hydroxycyclobutyl)phenyl)-5-phenyl-3-(2,2,2-trifluoroethyl)furo[2,3-d]pyrimidin-4(3H)-one.HCl]",≥ 7.70,improved potency,5.82 to 6.52,improved potency,5.22 to 6.00,improved potency,≥ 6.30,–,–,–,–,–,–
"C[C@]1(O)C[C@](N)(c2ccc(-c3oc4ncn(CC(F)(F)F)c(=O)c4c3-c3ccccc3)cc2)C1 [Compound 1, 6-(4-((1s,3s)-1-Amino-3-hydroxy-3-methylcyclobutyl)phenyl)-5-phenyl-3-(2,2,2-trifluoroethyl)furo[2,3-d]pyrimidin-4(3H)-one.HCl]",≥ 7.70,improved potency,5.82 to 6.52,improved potency,5.22 to 6.00,improved potency,≥ 6.30,≥ 0.05,significantly higher unbound fraction,≤ 10,shorter T1/2,* (>2 kinases),–
"Cn1c(-c2ccc([C@]3(N)C[C@@H](O)C3)cc2)c(-c2ccccc2)c2c(=O)n(CC(F)(F)F)cnc21 [Compound 7, 6-(4-((1s,3s)-1-Amino-3-hydroxycyclobutyl)phenyl)-7-methyl-5-phenyl-3-(2,2,2-trifluoroethyl)-3H-pyrrolo[2,3-d]pyrimidin-4(7H)-one.HCl]",≥ 7.70,improved potency,5.82 to 6.52,improved potency,5.22 to 6.00,improved potency,≥ 6.30,–,–,–,–,–,–
"C[C@]1(O)C[C@@](N)(c2ccc(-c3oc4ncn(CC(F)(F)F)c(=O)c4c3-c3ccccc3)cc2)C1 [Compound 4, 6-(4-((1r,3r)-1-Amino-3-hydroxy-3-methylcyclobutyl)phenyl)-5-phenyl-3-(2,2,2-trifluoroethyl)furo[2,3-d]pyrimidin-4(3H)-one.HCl]",≥ 7.70,improved potency,≥ 6.52,improved potency,≥ 6.00,improved potency,≥ 6.30,–,–,–,–,** (1-2 kinases),less off-target kinase activity
"NC1(c2ccc(-c3oc4ncn(CC(F)(F)F)c(=O)c4c3-c3ccccc3)cc2)CCC1 [Compound A, reference compound]",7.00 to 7.70,–,< 5.82,–,< 5.22,–,–,≤ 0.02,–,> 24,–,* (>2 kinases),–
"N[C@]1(c2ccc(-c3oc4ncn(CC(F)(F)F)c(=O)c4c3-c3ccccc3)cc2)C[C@@H](O)C1 [Compound 2, 6-(4-((1r,3r)-1-Amino-3-hydroxycyclobutyl)phenyl)-5-phenyl-3-(2,2,2-trifluoroethyl)furo[2,3-d]pyrimidin-4(3H)-one. HCl]",≥ 7.70,improved potency,< 5.82,–,< 5.22,–,≥ 6.30,–,–,–,–,–,–
